Test results from PMC11207040, “Synthesis and Biological Studies of New Temporin A Analogs Containing Unnatural Amino Acids in Position 7” (Pharmaceutics, 2024).
In brackets after ≈: the same amount, converted by molar mass. Where two headings read alike, the source gives them in different places. Non-standard residues stand in square brackets, D forms with d. Residues, ends and D or L forms follow the SMILES beside them. Dab = NCC[C@H](N)C(=O)O

Legend:
Assay type in all cases: cell-based
[1] = system: Arthrobacter oxydans NBIMCC 9333; conditions: for Inhibition effect, A. oxydans 9333: zone of peptide over zone of antibiotic x 100; for Inhibition zone, A. oxydans 9333: 20 µL per disc, 24 h
Protocol: (§1) The parent peptide Temporin A and the novel analogs were subjected to tests against model strains Escherichia coli NBIMCC 8785, Bacillus subtilis NBIMCC 3562, Arthrobacter oxydans NBIMCC 9333, Pseudomonas aeruginosa NBIMCC 3700, and Candida albicans NBIMCC 74, for the assessment of their antimicrobial activity. The strains were acquired from the National Bank for Industrial Microorganisms and Cell Cultures (NBIMCC, Bulgaria). The strain E. coli 8785 was cultured in Luria-Bertani broth (LB, HiMedia, Mumbai, India); B. subtilis 3562—in nutrient broth (NB, HiMedia, Mumbai, India); A. oxydans 9333; P. aeruginosa 3700—in meat peptone agar (MPA) medium; and C. albicans 74—in yeast mold (YM) medium. An incubator shaker ES-20/60 (Biosan, Latvia) was used for the cultivation and was set to 30 °C for B. subtilis 3562, A. oxydans 9333, and C. albicans 74; and 37 °C for E. coli 8785 and P. aeruginosa 3700, with a 24 h shaking period at 120 rpm. The microbial cultures were then adjusted to a turbidity of 0.5 McFarland using a Grant-bio DEN-1B densitometer (Grant Instruments, Royston, UK) for further use.
(§2) The disk-diffusion method was used as an additional method, with the aim of determining the percent inhibition of the tested samples against the model strains. Sterile plates with LB/NB/MPA/YM agar medium were inoculated on the surface with 100 μL from each microbial culture and incubated at 30 or 37 °C for 30 min, for the suspension to penetrate the agar. After that, sterile paper discs (HiMedia, Mumbai, India) with a diameter of 6 mm were soaked with 20 µL of the peptide solutions with concentrations of 1.4 mg/mL and 10 mg/mL and placed on the agar surface. Sterile paper discs with 10% EtOH/H2O were used as a negative control, and the corresponding strain antibiotic disks (HiMedia, Mumbai, India)—as a positive control. The incubation of the plate was performed at 30/37 °C for 24 h. The antimicrobial activity was analyzed by measuring the diameter of the inhibition zones in mm. The experiments were conducted in triplicates, and the average values for the percent of inhibition as a correlation between the inhibition zone of the peptides over the inhibition zone of the antibiotic multiplied by 100 were calculated.

[2] = system: Pseudomonas aeruginosa NBIMCC 3700; conditions: for Inhibition effect, P. aeruginosa 3700: zone of peptide over zone of antibiotic x 100; for Inhibition zone, P. aeruginosa 3700: 20 µL per disc, 24 h
Protocol: as §1, §2

[3] = system: Bacillus subtilis NBIMCC 3562; conditions: for Inhibition effect, B. subtilis 3562: zone of peptide over zone of antibiotic x 100; for Inhibition zone, B. subtilis 3562: 20 µL per disc, 24 h
Protocol: as §1, §2

[4] = system: Candida albicans NBIMCC 74; conditions: 20 µL per disc, 24 h
Protocol: as §1, §2

[5] = system: Escherichia coli NBIMCC 8785; conditions: 20 µL per disc, 24 h
Protocol: as §1, §2

[6] = system: Candida albicans NBIMCC 74; conditions: broth dilution, 0 to 320 µg/mL, 24 h; NI = no inhibition monitored

## CC[C@H](C)[C@H](NC(=O)CNC(=O)[C@H](CO)NC(=O)[C@H](CC(C)C)NC(=O)[C@@H](NC(=O)[C@H](CCN)NC(=O)CNC(=O)[C@@H](NC(=O)[C@H](CC(C)C)NC(=O)[C@@H]1CCCN1C(=O)[C@H](CC(C)C)NC(=O)[C@@H](N)Cc1ccccc1)[C@@H](C)CC)C(C)C)C(=O)N[C@@H](CC(C)C)C(N)=O [DTDab, FLPLIG-Dab-VLSGIL-NH2] (H-FLPLIG[Dab]VLSGIL-NH2; N-terminus assumed)
[1]; 1.4 mg/mL
  Inhibition effect, A. oxydans 9333: 43.2%
[1]; 10 mg/mL
  Inhibition effect, A. oxydans 9333: 76.3%
[1]; peptide 1.4 mg/mL
  Inhibition zone, A. oxydans 9333: 8.2 ± 0.3 mm
[1]; peptide 10 mg/mL
  Inhibition zone, A. oxydans 9333: 14.5 ± 0.5 mm
[2]; 1.4 mg/mL
  Inhibition effect, P. aeruginosa 3700: 48.1%
[2]; 10 mg/mL
  Inhibition effect, P. aeruginosa 3700: 89.4%
[2]; peptide 1.4 mg/mL
  Inhibition zone, P. aeruginosa 3700: 7.7 ± 0.6 mm
[2]; peptide 10 mg/mL
  Inhibition zone, P. aeruginosa 3700: 14.3 ± 0.6 mm
[3]; 1.4 mg/mL
  Inhibition effect, B. subtilis 3562: 0.0%
[3]; 10 mg/mL
  Inhibition effect, B. subtilis 3562: 45.2%
[3]; peptide 1.4 mg/mL
  Inhibition zone, B. subtilis 3562: 0.0 mm
[3]; peptide 10 mg/mL
  Inhibition zone, B. subtilis 3562: 11.3 ± 0.6 mm
[4]; peptide 1.4 mg/mL
  Inhibition zone, C. albicans 74: 0.0 mm
[4]; peptide 10 mg/mL
  Inhibition zone, C. albicans 74: 0.0 mm
[5]; peptide 1.4 mg/mL
  Inhibition zone, E. coli 8785: 0.0 mm
[5]; peptide 10 mg/mL
  Inhibition zone, E. coli 8785: 0.0 mm

## CC[C@H](C)[C@H](NC(=O)CNC(=O)[C@H](CO)NC(=O)[C@H](CC(C)C)NC(=O)[C@@H](NC(=O)[C@H](CCCCN)NC(=O)CNC(=O)[C@@H](NC(=O)[C@H](CC(C)C)NC(=O)[C@@H]1CCCN1C(=O)[C@H](CC(C)C)NC(=O)[C@@H](N)Cc1ccccc1)[C@@H](C)CC)C(C)C)C(=O)N[C@@H](CC(C)C)C(N)=O [DTF, FLPLIG-K-VLSGIL-NH2, reference compound] (H-FLPLIGKVLSGIL-NH2)
[1]; 1.4 mg/mL
  Inhibition effect, A. oxydans 9333: 33.5%
[1]; 10 mg/mL
  Inhibition effect, A. oxydans 9333: 57.5%
[1]; peptide 1.4 mg/mL
  Inhibition zone, A. oxydans 9333: 6.7 ± 0.3 mm
[1]; peptide 10 mg/mL
  Inhibition zone, A. oxydans 9333: 11.5 ± 0.5 mm
[2]; 1.4 mg/mL
  Inhibition effect, P. aeruginosa 3700: 43.8%
[2]; 10 mg/mL
  Inhibition effect, P. aeruginosa 3700: 64.4%
[2]; peptide 1.4 mg/mL
  Inhibition zone, P. aeruginosa 3700: 7.0 ± 0.5 mm
[2]; peptide 10 mg/mL
  Inhibition zone, P. aeruginosa 3700: 10.3 ± 0.8 mm
[3]; 1.4 mg/mL
  Inhibition effect, B. subtilis 3562: 34.0%
[3]; 10 mg/mL
  Inhibition effect, B. subtilis 3562: 50.8%
[3]; peptide 1.4 mg/mL
  Inhibition zone, B. subtilis 3562: 8.5 ± 0.5 mm
[3]; peptide 10 mg/mL
  Inhibition zone, B. subtilis 3562: 12.7 ± 0.6 mm
[4]; peptide 1.4 mg/mL
  Inhibition zone, C. albicans 74: 0.0 mm
[4]; peptide 10 mg/mL
  Inhibition zone, C. albicans 74: 0.0 mm
[5]; peptide 1.4 mg/mL
  Inhibition zone, E. coli 8785: 0.0 mm
[5]; peptide 10 mg/mL
  Inhibition zone, E. coli 8785: 0.0 mm
[6]
  MIC, C. albicans 74: 320 µg/mL (≈ 234 µM)
